Series [1] concerns LPS induced systemic inflammation of mouse brain. As to the kind of experiment: Dynamic PET/CT imaging in LPS-treated mice. It counts as in vivo. The settings on record: for brain uptake in LPS-treated mice relative to saline-treated mice: 24 h post LPS, frames 45-60 min. Here is the method: FIG. 9A-FIG. 9D is an exemplary embodiment showing preclinical PET/CT imaging in accordance with the present disclosure. C57BI6 mice (n=4) were injected with either LPS or saline intraperitoneally. 24 h post treatments, 18F-SLN-128 (100 μCi) was injected via tail-vein into mice. Dynamic PET images were acquired from 0 min to 60 min post tail-vein injection of the radiotracer. PET/CT images as shown are a summation frames from 45-60 min. FIG. 9A is an image showing saline treated mice (control). FIG. 9B is an image showing LPS treated mice (5 μg/g, 24 h post treatment); FIG. 9C is a bar graph showing quantified uptake: % ID/cm3. FIG. 9D is a bar graph showing post imaging biodistribution: Brain Uptake (% ID/g). mean±SD, where **p<0.01 and […] is determined by an unpaired student ttest) in brains of BI6 mice (n=4) 24 h post either LPS- or saline treatments.
Systemic administration of LPS induces oxidative stress and resulting a release of inflammatory cytokines, sustained microglial activation, and neuronal cell loss in brain areas, such as the hippocampus, cerebral cortex, substantia nigra, ventral tegmental area, and thalamus, alters the levels of neurotransmitters in adult animals, and cerebellum. Thus LPS-induced inflammation provides a useful rodent model for preclinical imaging of ^18F-SLN-128. […] Finally, the brain uptake (see e.g., FIG. 9C) derived from PET imaging also correlated with 60 min post imaging quantified uptake (see e.g., FIG. 9D) indicating potential of the radiotracer for imaging endotoxin mediated brain inflammation in vivo. Mitochondrial dysfunction is a major event in the pathogenesis of Huntington disease (HD). It has also been reported that systemic 3-NP administration leads to oxidized proteins in the striatum, as well as a massive loss of striatal neurons. To evaluate potential of ^18F-SLN-128 PET imaging for 3NP-induced ROS-mediated neurodegeneration in mice, PET/CT imaging was performed.

A short description of series [2]: Dynamic PET/MR brain imaging of normal rhesus monkey. The class given is in vivo. Here is the method: FIG. 12A-FIG. 12B is an exemplary embodiment showing dynamic MR/PET brain imaging of normal rhesus monkey (10 Kg) following intravenous injection of 18F-SLN-128 (5.8 mCi) over 2 h in accordance with the present disclosure. FIG. 12A includes images showing summation of PET data over 10 min and co-registered with T2-weighted MR image of the monkey for anatomical reference. FIG. 12B is a line graph showing SUVs as a time-activity curve for the tracer influx and clearance from important regions of the brain.
Of note, these NHP brain SUV values are 2.5-fold higher than reported for ^18F-ROStrace thus likely to translate into higher contrast brain images compared with ^18F-ROStrace (SUV=1.35). […] Tissue time-activity curves (TACs) also show fast initial uptake with maximum projection of activity at 7-10 min followed by clearance of ^18F-SLN-128 at later time-points from amygdala, caudate, cerebellum, cortex (frontal, insular, occipital and temporal), cerebellum, hippocampus, putamen, thalamus, and white matter of rhesus monkey brain.

Each structure is given as a SMILES string.

As for `COc1ccc2c(c1)N(C)C(c1ccc(O)c(OCC[18F])c1)c1cccn1-2` (stereo not drawn) [18F-SLN-128], the “brain uptake in LPS-treated mice relative to saline-treated mice” value is on record as 2.5 fold in series [1] and 2 fold in series [1] (listed as 18F-SLN128). In series [1] (compared with saline-treated counterparts), the “retention in brains of LPS treated mice” value is “stable retention in brains of LPS treated mice”. Moreover, the “clearance from brain regions” value in series [2] (later time points) is “excreted from critical regions at later-time points”. In addition, in series [2] (over 2 h), the “nonspecific retention in normal monkey brain” value is “Insignificant nonspecific retention”. Besides, the “time of maximum SUV” value in series [2] (rhesus monkey) was in the range of 7 to 10 min. For the same compound, the “NHP brain SUV relative to 18F-ROStrace” value in series [2] (rhesus monkey, in vivo) is given as 2.5 fold. In addition, the “maximum Standard Uptake Value (SUV) in brain” value in series [2] (rhesus monkey, intravenous injection) came out at 3.5. Also, the “metabolites in venous blood (radio-HPLC, γ-counter)” value in series [2] (samples at an interval of 3 min over 2 hours) was “did not show any metabolite”.

The values above are taken from patent US20240226342A1, “REACTIVE OXYGEN SPECIES IMAGING AGENTS” (Washington University, priority 2022, published 2024).
